Results published in ChEMBL document CHEMBL1152854, “Synthesis, characterization and in vitro antibacterial activity of new steroidal 5-en-3-oxazolo and thiazoloquinoxaline” (Eur J Med Chem, 2008).
Values after ≈ are worked out from the molar mass of the structure shown.

Columns and labels:
Staphylococcus aureus [1] = assay: Antimicrobial activity against Staphylococcus aureus at 200 ug/mL after 24 hrs by disk diffusion method; format: functional; details: read-out: IZ
Streptococcus pyogenes [2] = assay: Antimicrobial activity against Streptococcus pyogenes at 200 ug/mL after 24 hrs by disk diffusion method; format: functional; details: read-out: IZ
Salmonella typhimurium [3] = assay: Antimicrobial activity against Salmonella Typhimurium at 200 ug/mL after 24 hrs by disk diffusion method; format: functional, Salmonella enterica subsp. enterica serovar Typhimurium; details: Salmonella enterica, read-out: IZ
Escherichia coli [4] = assay: Antimicrobial activity against Escherichia coli at 200 ug/mL after 24 hrs by disk diffusion method; format: functional; details: read-out: IZ
Staphylococcus aureus [5] = assay: Antimicrobial activity against Staphylococcus aureus after 24 hrs by broth microdilution method; format: functional, organism-based
Streptococcus pyogenes [6] = assay: Antimicrobial activity against Streptococcus pyogenes after 24 hrs by broth microdilution method; format: functional, organism-based
Salmonella typhimurium [7] = assay: Antimicrobial activity against Salmonella Typhimurium after 24 hrs by broth microdilution method; format: functional, organism-based, Salmonella enterica subsp. enterica serovar Typhimurium; details: Salmonella enterica
Escherichia coli [8] = assay: Antimicrobial activity against Escherichia coli after 24 hrs by broth microdilution method; format: functional, organism-based

Row | SMILES | zone of inhibition at 200 µg/mL (Staphylococcus aureus [1]) | zone of inhibition at 200 µg/mL (Streptococcus pyogenes [2]) | zone of inhibition at 200 µg/mL (Salmonella typhimurium [3]) | zone of inhibition at 200 µg/mL (Escherichia coli [4]) | IC50 (Staphylococcus aureus [5]) | MIC (Staphylococcus aureus [5]) | IC50 (Streptococcus pyogenes [6]) | MIC (Streptococcus pyogenes [6]) | IC50 (Salmonella typhimurium [7]) | MIC (Salmonella typhimurium [7]) | IC50 (Escherichia coli [8]) | MIC (Escherichia coli [8])
1 | CC(C)CCC[C@@H](C)[C@H]1CC[C@H]2[C@@H]3CC=C4C/C(=N/NC(N)=S)CC[C@]4(C)[C@H]3CC[C@]12C | 15.2 mm | 13.5 mm | 14.5 mm | 15.5 mm | 3.68 µg/mL (≈ 8.04 µM) | 6.25 µg/mL (≈ 13.7 µM) | 3.66 µg/mL (≈ 8 µM) | 6.25 µg/mL (≈ 13.7 µM) | 3.72 µg/mL (≈ 8.13 µM) | 6.25 µg/mL (≈ 13.7 µM) | 3.68 µg/mL (≈ 8.04 µM) | 6.25 µg/mL (≈ 13.7 µM)
2 | CC(C)CCC[C@@H](C)[C@H]1CC[C@H]2[C@@H]3CC=C4C/C(=N/Nc5nc6nc7ccccc7nc6s5)CC[C@]4(C)[C@H]3CC[C@]12C | 21.2 mm | 23.2 mm | 20.4 mm | 21.4 mm | 0.54 µg/mL (≈ 0.925 µM) | 0.78 µg/mL (≈ 1.34 µM) | 0.52 µg/mL (≈ 0.891 µM) | 0.78 µg/mL (≈ 1.34 µM) | 0.28 µg/mL (≈ 0.48 µM) | 0.39 µg/mL (≈ 0.668 µM) | 0.24 µg/mL (≈ 0.411 µM) | 0.39 µg/mL (≈ 0.668 µM)
3 | CC(C)CCC[C@@H](C)[C@H]1CC[C@H]2[C@@H]3CC=C4C/C(=N/Nc5nc6nc7ccccc7nc6o5)CC[C@]4(C)[C@H]3CC[C@]12C | 22.5 mm | 23.4 mm | 24.5 mm | 23.6 mm | 0.48 µg/mL (≈ 0.845 µM) | 0.78 µg/mL (≈ 1.37 µM) | 0.54 µg/mL (≈ 0.951 µM) | 0.78 µg/mL (≈ 1.37 µM) | 0.48 µg/mL (≈ 0.845 µM) | 0.78 µg/mL (≈ 1.37 µM) | 0.26 µg/mL (≈ 0.458 µM) | 0.39 µg/mL (≈ 0.687 µM)
4 | CC(C)CCC[C@@H](C)[C@H]1CC[C@H]2[C@@H]3CC=C4C/C(=N/NC(N)=O)CC[C@]4(C)[C@H]3CC[C@]12C | 14.6 mm | 13.4 mm | 15.5 mm | 14.2 mm | 3.65 µg/mL (≈ 8.26 µM) | 6.25 µg/mL (≈ 14.1 µM) | 3.68 µg/mL (≈ 8.33 µM) | 6.25 µg/mL (≈ 14.1 µM) | 1.94 µg/mL (≈ 4.39 µM) | 3.12 µg/mL (≈ 7.06 µM) | 1.88 µg/mL (≈ 4.26 µM) | 3.12 µg/mL (≈ 7.06 µM)
5 | CC(C)CCC[C@@H](C)[C@H]1CC[C@H]2[C@@H]3CC=C4C[C@@H](O)CC[C@]4(C)[C@H]3CC[C@]12C [CHOLESTEROL] | 9.2 mm | 7.8 mm | 8.2 mm | 9 mm | – | – | – | – | – | – | – | –
6 | CC1(C)S[C@@H]2[C@H](NC(=O)[C@H](N)c3ccc(O)cc3)C(=O)N2[C@H]1C(=O)O [AMOXICILLIN] | 17 mm | 18.2 mm | 17.2 mm | 20 mm | 1.82 µg/mL (≈ 4.98 µM) | 3.12 µg/mL (≈ 8.54 µM) | 1.8 µg/mL (≈ 4.93 µM) | 3.12 µg/mL (≈ 8.54 µM) | 1.85 µg/mL (≈ 5.06 µM) | 3.12 µg/mL (≈ 8.54 µM) | 1.9 µg/mL (≈ 5.2 µM) | 3.12 µg/mL (≈ 8.54 µM)
